Measured values: ChEMBL document CHEMBL1152252, “Synthesis, biological evaluation, structural-activity relationship, and docking study for a series of benzoxepin-derived estrogen receptor modulators” (Bioorg Med Chem, 2008)
The source made the active and inactive calls. The rule behind the calls is not given here.

Key:
[1] = test system: MDA-MB-231; experiment: Antiproliferative activity against hormone independent human MDA-MB-231 cells upto 100 nM after 72 hrs by MTT assay; type: functional, cell-based
[2] = test system: MCF7; experiment: Antiproliferative activity against estrogen receptor dependent human MCF7 cells at 10 uM after 72 hrs by LDH assay; type: functional
[3] = test system: MDA-MB-231; experiment: Antiproliferative activity against hormone independent human MDA-MB-231 cells after 72 hrs by MTT assay; type: functional, cell-based; conditions: MDA-MB-231, 72 h
[4] = test system: Ishikawa; experiment: Estrogenic stimulatory activity in human Ishikawa cells assessed as alkaline phosphatase activity at 1 uM after 72 hrs in absence of estradiol; type: functional
[5] = test system: MCF7; experiment: Antiproliferative activity against estrogen receptor dependent human MCF7 cells after 72 hrs by MTT assay; type: functional, cell-based; conditions: MCF7, 72 h
[6] = target: T1, Estrogen receptor (Homo sapiens, UniProt P03372); experiment: biochemical
T1 sequence (P03372 whole entry): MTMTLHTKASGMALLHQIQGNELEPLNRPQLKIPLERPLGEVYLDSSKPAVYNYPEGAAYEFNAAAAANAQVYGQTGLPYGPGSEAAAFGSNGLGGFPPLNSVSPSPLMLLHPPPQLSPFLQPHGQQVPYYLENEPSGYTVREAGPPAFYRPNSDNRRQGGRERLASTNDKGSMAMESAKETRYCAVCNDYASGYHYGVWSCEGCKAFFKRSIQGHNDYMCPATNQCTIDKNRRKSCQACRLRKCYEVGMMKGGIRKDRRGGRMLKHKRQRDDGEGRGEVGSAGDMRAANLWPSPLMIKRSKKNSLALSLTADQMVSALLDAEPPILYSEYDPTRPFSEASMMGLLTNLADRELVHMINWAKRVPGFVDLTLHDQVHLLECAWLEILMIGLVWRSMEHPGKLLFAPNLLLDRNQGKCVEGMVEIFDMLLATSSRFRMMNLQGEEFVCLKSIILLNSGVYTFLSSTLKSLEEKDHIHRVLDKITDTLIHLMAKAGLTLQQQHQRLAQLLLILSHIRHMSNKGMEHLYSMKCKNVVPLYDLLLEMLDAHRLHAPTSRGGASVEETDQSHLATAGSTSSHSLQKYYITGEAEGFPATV
Description: Displacement of fluorescein labeled estradiol from human recombinant ERalpha expressed in baculovirus infected insect cells by fluorescence polarization assay

[7] = test system: Ishikawa; experiment: Antiestrogenic activity in human Ishikawa cells assessed as inhibition of estrogen-induced alkaline phosphatase activity after 72 hrs; type: functional, cell-based
[8] = target: Estrogen receptor beta (Homo sapiens, UniProt Q92731); experiment: biochemical
Sequence of Estrogen receptor beta (Q92731 whole entry): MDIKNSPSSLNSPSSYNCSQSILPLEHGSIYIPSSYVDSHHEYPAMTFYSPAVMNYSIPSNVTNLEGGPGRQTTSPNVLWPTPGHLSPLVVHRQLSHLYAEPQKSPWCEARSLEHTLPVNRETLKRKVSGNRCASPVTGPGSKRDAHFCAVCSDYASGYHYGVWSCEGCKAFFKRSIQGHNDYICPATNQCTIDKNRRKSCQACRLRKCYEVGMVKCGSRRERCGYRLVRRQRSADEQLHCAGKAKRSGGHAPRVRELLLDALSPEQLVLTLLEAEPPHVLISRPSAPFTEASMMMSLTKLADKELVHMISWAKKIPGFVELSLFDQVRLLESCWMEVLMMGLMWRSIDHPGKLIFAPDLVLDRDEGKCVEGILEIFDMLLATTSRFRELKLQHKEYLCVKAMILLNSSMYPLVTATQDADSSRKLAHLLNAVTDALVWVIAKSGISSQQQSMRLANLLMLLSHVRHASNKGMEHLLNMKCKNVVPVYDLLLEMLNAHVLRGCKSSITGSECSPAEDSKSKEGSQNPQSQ
Description: Displacement of fluorescein labeled estradiol from human recombinant ERbeta expressed in baculovirus infected insect cells by fluorescence polarization assay

Compound	Activity [1]	Activity [2]	IC50 [3]	Activity [4]	IC50 [5]	IC50 [6]	IC50 [7]	IC50 [8]
Oc1ccc(C2=C(c3ccc(OCCN4CCCC4)cc3)c3ccc(O)cc3OCC2)cc1	inactive	11%	2.6 µM	6%	11.9 nM	8.4 nM	20.8 nM	2.9 nM
Oc1cccc(C2=C(c3ccc(OCCN4CCCC4)cc3)c3ccc(F)cc3OCC2)c1	inactive				359 nM	14 nM		6 nM
Oc1ccc(C2=C(c3ccc(OCCN4CCCC4)cc3)c3ccc(F)cc3OCC2)cc1	inactive		6.75 µM	9.7%	21.4 nM	10.4 nM	194 nM	0.7 nM
Fc1ccc2c(c1)OCCC(c1ccccc1)=C2c1ccc(OCCN2CCCC2)cc1	inactive				1870 nM	16.2 nM		31 nM
COc1ccc2c(c1)OCCC(c1ccc(O)cc1)=C2c1ccc(OCCN2CCCCC2)cc1	inactive				1540 nM			
CC/C(=C(\c1ccccc1)c1ccc(OCCN(C)C)cc1)c1ccccc1 [TAMOXIFEN]	inactive			16.5%	4120 nM			
CS(=O)(=O)c1ccc(C2=C(c3ccc(OCCN4CCCC4)cc3)c3ccc(F)cc3OCC2)cc1	inactive				4560 nM	> 15000 nM		> 15000 nM
COc1ccc2c(c1)OCCC=C2c1ccc(O)cc1		17%						
CCC(=C(c1ccc(O)cc1)c1ccc(OCCN(C)C)cc1)c1ccccc1	inactive				107 nM			
Fc1ccc(C2=C(c3ccc(OCCN4CCCC4)cc3)c3ccc(F)cc3OCC2)cc1	inactive				450 nM	126 nM		262 nM
Oc1ccc(C2=C(c3ccc(OCCN4CCCC4)cc3)CCOc3cc(F)ccc32)cc1	inactive			23%	6500 nM	5.57 nM	216 nM	17.3 nM
c1ccc(C2=C(c3ccc(OCCN4CCCC4)cc3)c3ccccc3OCC2)cc1	inactive	8%			1580 nM			
Oc1ccc(C2=CCCOc3ccccc32)cc1		17%						
CN(C)CCOc1ccc(C2=C(c3cccs3)CCOc3ccccc32)cc1	inactive				16700 nM			
Oc1ccc(C2=C(c3ccc(OCCN4CCCCC4)cc3)c3ccc(F)cc3OCC2)cc1	inactive				156 nM	6.5 nM		8.78 nM
